Here are results for two molecules from EP3095787A1, “[…] ACTIVE COMPOUNDS AS DAG-LIPASE INHIBITORS” (Universiteit Leiden, priority 2015, dated 2016).

One experiment concerns the target T1, DAGL-α (Mus musculus, UniProt Q6WQJ1).
T1 construct: endogenously expressed DAGL-α in mouse membrane proteome; from tissue; host or cells: mouse brain membrane proteome
T1 sequence (Q6WQJ1 1-1044): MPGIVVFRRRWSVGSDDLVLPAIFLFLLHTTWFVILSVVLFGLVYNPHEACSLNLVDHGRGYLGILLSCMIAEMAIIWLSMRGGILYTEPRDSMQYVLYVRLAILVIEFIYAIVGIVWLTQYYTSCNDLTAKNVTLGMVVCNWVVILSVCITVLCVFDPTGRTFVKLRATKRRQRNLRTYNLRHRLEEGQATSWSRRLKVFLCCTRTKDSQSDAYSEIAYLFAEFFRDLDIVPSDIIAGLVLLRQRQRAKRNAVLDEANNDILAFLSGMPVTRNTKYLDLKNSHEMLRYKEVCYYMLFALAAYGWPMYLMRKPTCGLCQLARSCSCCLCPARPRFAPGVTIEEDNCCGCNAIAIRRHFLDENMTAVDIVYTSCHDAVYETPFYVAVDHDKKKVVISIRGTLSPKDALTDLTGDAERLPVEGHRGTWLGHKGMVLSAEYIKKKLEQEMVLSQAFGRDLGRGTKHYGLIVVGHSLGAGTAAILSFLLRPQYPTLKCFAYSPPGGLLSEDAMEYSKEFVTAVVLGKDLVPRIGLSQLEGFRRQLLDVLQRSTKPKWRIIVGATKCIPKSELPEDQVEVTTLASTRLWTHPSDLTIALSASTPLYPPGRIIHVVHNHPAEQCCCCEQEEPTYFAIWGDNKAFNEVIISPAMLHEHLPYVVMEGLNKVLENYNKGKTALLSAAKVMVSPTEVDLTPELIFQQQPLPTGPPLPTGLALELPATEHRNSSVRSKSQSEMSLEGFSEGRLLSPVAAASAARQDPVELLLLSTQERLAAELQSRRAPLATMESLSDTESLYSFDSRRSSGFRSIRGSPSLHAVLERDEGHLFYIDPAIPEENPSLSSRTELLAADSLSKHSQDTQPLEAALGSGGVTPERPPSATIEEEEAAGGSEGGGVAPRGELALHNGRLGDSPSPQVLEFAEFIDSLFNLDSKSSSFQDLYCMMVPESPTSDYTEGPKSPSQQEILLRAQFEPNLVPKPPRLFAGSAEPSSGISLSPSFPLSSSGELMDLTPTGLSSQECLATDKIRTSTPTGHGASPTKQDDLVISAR
The experiment in a line: Competitive ABPP with MB064 on endogenous DAGL-α in mouse brain membrane proteome. The following applies: MB064 250 nM, n=3, read-out: pIC50 of DAGL-α labeling by MB064 (converted). The class given is biochemical. From the text: To test its activity on endogenously expressed DAGL-α in mouse membrane proteome, an ABPP assay with MB064, a specific β-lactone-containing probe, which was tailor-made for the detection of DAGL-α activity, was used. An alkyne group was introduced in the prototypical DAGL-inhibitor tetrahydrolipstatin (THL) and conjugated this covalent, irreversible inhibitor via copper-catalyzed click chemistry to a BODIPY-acid as a fluorencent reporter group to yield tailor-made probe MB064.

The next experiment deals with human PC3 cells. Briefly: Lipidomics in PC3 cells. The class given is cell-based. The following applies: 4h at 37 °C in serum free medium. As to the method: To test the activity of inventive compound 25 in a human cell line, human PC3 cells (prostate cancer cell line) were used. The protocol for lipodomics in PC3 cells is given below. Before inhibitor treatment, the culture medium was removed and the cells were washed with warm (37 °C) serum free medium (3x). The cells were treated with vehicle (DMSO) or inhibitor for 4h at 37 °C in serum free medium. After 4h of incubation medium was removed and the cells were washed with cold (4°C) DPBS (3x) and subsequently suspended in DPBS and pelleted. The cell pellet metabolome was extracted and by MeOH/CHCl3 extraction and analysed by LCMS/MS of a triple quad mass spectometer (agilent). The concentration of the lipids was determined by comparison with spiked deuterated standards of the lipd species. […] This may indicate that downstream metabolic pathways of 2-AG signaling are also affected and that the biosynthesis of 2-AG is the rate-limiting step.

For the next experiment, the target named is T2, hDAGL-α (Homo sapiens, UniProt Q9Y4D2).
T2 sequence (Q9Y4D2 1-1042): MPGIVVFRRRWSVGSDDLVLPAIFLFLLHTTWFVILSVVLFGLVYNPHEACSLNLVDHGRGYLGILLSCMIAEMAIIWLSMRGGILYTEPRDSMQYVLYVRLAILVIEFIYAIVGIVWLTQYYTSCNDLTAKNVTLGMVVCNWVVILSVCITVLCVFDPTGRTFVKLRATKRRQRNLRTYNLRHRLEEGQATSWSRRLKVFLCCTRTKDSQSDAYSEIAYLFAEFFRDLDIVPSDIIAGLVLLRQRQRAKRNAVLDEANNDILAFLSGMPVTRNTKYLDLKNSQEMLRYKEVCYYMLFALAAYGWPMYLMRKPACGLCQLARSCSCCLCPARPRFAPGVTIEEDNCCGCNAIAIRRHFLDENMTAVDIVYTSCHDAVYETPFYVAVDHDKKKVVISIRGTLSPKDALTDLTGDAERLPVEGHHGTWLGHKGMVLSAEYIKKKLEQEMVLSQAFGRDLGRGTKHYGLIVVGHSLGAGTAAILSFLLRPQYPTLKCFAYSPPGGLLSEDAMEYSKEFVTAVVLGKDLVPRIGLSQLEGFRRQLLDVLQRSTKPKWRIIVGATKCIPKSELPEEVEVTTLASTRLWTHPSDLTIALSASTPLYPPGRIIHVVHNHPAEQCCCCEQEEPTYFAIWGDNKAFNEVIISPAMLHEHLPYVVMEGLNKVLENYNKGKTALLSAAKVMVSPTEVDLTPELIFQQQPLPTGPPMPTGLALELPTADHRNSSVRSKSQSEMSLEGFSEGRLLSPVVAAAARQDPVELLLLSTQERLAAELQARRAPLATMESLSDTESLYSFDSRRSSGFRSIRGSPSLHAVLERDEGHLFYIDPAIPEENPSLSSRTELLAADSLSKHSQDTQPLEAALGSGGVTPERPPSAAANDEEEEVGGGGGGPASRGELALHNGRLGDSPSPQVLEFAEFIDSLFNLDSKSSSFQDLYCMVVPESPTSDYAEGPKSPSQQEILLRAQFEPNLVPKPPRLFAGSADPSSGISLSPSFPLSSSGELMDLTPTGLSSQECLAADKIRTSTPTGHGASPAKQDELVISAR
Briefly: Mode of action (reversibility) experiment: size exclusion chromatography, then MB064 labeling. The experiment is classed as biochemical. The following applies: pre-incubation at IC80 concentration; remaining activity visualized with MB064; n=3. More on the design: expressed in transfected cells. As to the method: To determine the mode of action (reversible versus irreversible) of the inventive compounds, an experiment in which human DAGL-α membranes were pre-incubated at the IC80 concentration of compound 25 or the irreversible DAGL inhibitor KT-109 was performed.
(In gel filtration, larger molecules generally elute earlier.)

Another experiment concerns the target FAAH. The following applies: reported value; cited from earlier work.

For `Cc1ccc(-c2cnc3nc(C(=O)CCCCCc4ccccc4)oc3c2)cc1` [Compound 25, 1-(6-(p-Tolyl)oxazolo[4,5-b]pyridin-2-yl)-6-phenylhexan-1-one], the IC50 at DAGL-α is 31.6 nM. Moreover, in the experiment with human PC3 cells, the 2-AG levels entry is on record as “reduced 2-AG levels”, the arachidonic acid levels result is on record as “reduced” and the “substrate levels of DAGL” value is “no change”. Besides, on hDAGL-α, the “recovery of DAGL-α activity after size exclusion chromatography” value is listed as “reversibility”.

In the case of `O=C(CCCCCc1ccccc1)c1nc2ncccc2o1` [Compound 1, 1-(Oxazolo[4,5-b]pyridin-2-yl)-6-phenylhexan-1-one, reference compound], at FAAH, the “FAAH Activity assay reported pKi” value is given as 9.70.
